According to patent US20110268721A1, “Therapy Regimens, Dosing Regimens And Stable Medicaments For The Treatment Of Pompe Disease” (Amicus Therapeutics, Inc., priority 2008, published 2011):
Structures can show the parent of a compound that is named as a salt.

Tests used:
[1] = molecular target: T1, recombinant human GAA (Myozyme®, Genzyme Corp.) (Homo sapiens, UniProt P10253); assay: SYPRO Orange protein folding monitored at 37° C. over 24 hours; assay type: binding; settings: plasma pH (7.4), 100 μM 1-DNJ-HCl
T1 construct: purchased Genzyme Corp
Description: FIG. 2B depicts a parallel SYPRO Orange thermal stability experiment to determine if the loss of enzyme activity shown in FIG. 2A, particularly the loss of Myozyme activity at ER pH (7.4), correlates with protein unfolding and denaturation.
In order to determine if loss of initial enzyme activity is correlated to failure to maintain a proper conformation, a SYPRO Orange thermal stability experiment was performed on the samples above as generally described in Example 1. […] Based on this experiment, the % of GAA folded was estimated and plotted in FIG. 2B.

[2] = molecular target: T2, GAA in cell lines derived from late-onset Pompe patients with the IVS 1 (−13 T>G) splicing defect (Homo sapiens, UniProt P10253); assay: GAA levels in cell lines derived from late-onset Pompe patients; assay type: cell-based; settings: IVS 1 (−13 T>G) splicing mutation
T2 construct: endogenous in cells

rhGAA (Myozyme™) = molecular target: T3, rhGAA (Myozyme™) (Homo sapiens, UniProt P10253); assay: rhGAA enzyme inactivation in citrate anti-coagulated whole blood at 37° C. (4-MUG); assay type: biochemical
T3 construct: purchased Genzyme Corp; host or cells: Chinese hamster ovary cell line
Description: Aliquots were collected at 0, 2, 4, 8 and 24 hrs and centrifuged to obtain plasma. These plasma samples were then diluted in potassium acetate buffer (pH 4.0) and assayed for GAA activity using the 4-methylumbeliferyl-α-glucose (4-MUG) fluorogenic substrate. The measured GAA activity for individual samples at each time point was normalized to the 0 hr and expressed as % of initial activity. Data from 4 independent experiments were analyzed to obtain the mean (and standard deviation) and plotted versus time to assess the loss of enzyme activity over this time course.
Aliquots were collected at 0, 3 and 6 hrs and centrifuged to obtain plasma. These plasma samples were then diluted in potassium acetate buffer (pH 4.0) and assayed for GAA activity using the 4-methylumbeliferyl-α-glucose (4-MUG) fluorogenic substrate. The measured GAA activity for individual samples at each time point was normalized to the 0 hr and expressed as % of initial activity.
Based on human plasma PK data, these concentrations are readily obtainable in the clinic.

GAA KO mouse = assay: GAA activity in heart and diaphragm tissue of GAA KO mouse, rhGAA with or without 1-DNJ-HCl; assay type: in vivo
Description: Three groups of GAA KO Mice were administered one of the following formulations: […]
(1) Control (No Treatment);
Heart and Diaphragm tissue homogenates were harvested and rhGAA activity was measured using the fluorogenic substrate (4-MUG).

[3] = molecular target: T1, recombinant human GAA (Myozyme®, Genzyme Corp.); assay: SYPRO Orange thermal stability assay (heat-induced denaturation); assay type: binding
Excerpt: The thermal stability assay utilizes heat to induce protein denaturation, which is monitored using a SYPRO Orange dye that fluoresces upon binding to hydrophobic amino acids (which are not exposed in a folded protein).
FIG. 5 depict the results of a thermal stability assay that utilizes heat to induce protein denaturation, which is monitored using a SYPRO Orange dye that fluoresces upon binding to hydrophobic amino acids (which are not exposed in a folded protein).
Denaturation is monitored using a SYPRO Orange dye that fluoresces upon binding to hydrophobic amino acids (which are not exposed in a folded protein).
The thermal stability was performed at pH 7.4 for two formulations, which corresponds to the pH of the ER.
A thermal stability experiment as generally described in Example 1 was performed on four compositions:
(1) Myozyme only composition;

GAA KO mice [4] = assay: Myozyme tissue uptake (GAA activity, 4-MUG) in GAA KO mice with or without oral 1-DNJ-HCl; assay type: in vivo
Excerpt: Enzymatic activity as determined using a 4-MUG fluorogenic substrate assay.

[5] = reported value; cited from earlier work
[6] = stored at 2 to 8° C.; patient instructions for Myozyme; cited from earlier work
GAA KO mice [7] = assay: Tissue glycogen reduction in GAA KO mice; assay type: in vivo; settings: Myozyme 40 mg/kg IV every other week for 8 weeks, 1-DNJ-HCl 30 mg/kg oral 30 minutes prior where co-administered
Description: Glycogen reduction with Myozyme™ alone was 93±1%, 41±4%, 69±3%, and 18±4%, in heart, diaphragm, soleus, and quadriceps, respectively, relative to untreated mice.
Twelve-week old male GAA KO mice were administered a single dose of Myozyme™ (40 mg/kg) via bolus tail vein injection every other week for 8 weeks. To prevent anaphylaxis, before the third and fourth Myozyme™ injection, diphenhydramine (10 mg/kg intraperitoneally) was administered 10 min before Myozyme™ injection. […] Mice were euthanized 14 days after the last Myozyme™ administration.
Glycogen levels in heart, diaphragm, soleus, and quadriceps were then measured. […] Briefly, homogenates were prepared by homogenizing ˜50 mg tissue for 3-5 seconds on ice with a microhomogenizer in 200 μL deionized water. Supernatants were heat denatured (99° C. for 10 min) to remove endogenous amyloglucosidase activity. Denatured lysates (4 μL) were then analyzed in duplicate by addition of 36 μL water with and without 10 μL of 800 U/mL of amyloglucosidase (Sigma Aldrich, St. Louis, Mo.) and incubated for 1 hour at 50° C. The reaction was stopped by inactivation at 100° C. for 10 min. Finally, 200 μL of glucose reagent (Sigma) was added absorbance read at 340 nm on Spectramax. A standard curve ranging from 5 μg/mL to 400 μg/mL Type III rabbit liver glycogen (Sigma) was run each day for conversion of absorbance to absolute glycogen units. Simultaneously, the amount of protein was determined in tissue homogenates using the Micro BCA Protein Assay (Pierce, Rockford, Ill.) following the manufacturer's instructions. The glycogen content of each sample was normalized to protein, and data were finally expressed as micrograms of glycogen per milligram of protein (μg/mg protein).

rhGAA activity in whole blood with 1-DNJ-HCl (rhGAA (Myozyme™); 50 μM 1-DNJ-HCl, 37° C., throughout 24 hrs) | Compound | prevention of GAA denaturation and loss of enzyme activity [1] | GAA levels in patient-derived cell lines [2] | stabilization of rhGAA in whole blood (rhGAA (Myozyme™); high 1-DNJ-HCl concentrations (50 and 100 μM), range tested 0-100 μM) | increase of uptake of rhGAA in heart and diaphragm (GAA KO mouse; GAA KO mice, 100 mg/kg p.o., regimen including administration prior to rhGAA injection) | rhGAA uptake in the heart and diaphragm (GAA activity) (GAA KO mouse; GAA KO mouse, co-administered with rhGAA versus ERT monotherapy) | thermal stability of rhGAA (heat required to denature) ([3]; pH 7.4, 100 μM 1-DNJ-HCl, compared to formulation without the ASSC) | effect of co-administration on Myozyme tissue uptake (GAA KO mice [4]; 10, 100, 1000 mg/kg oral 1-DNJ-HCl with Myozyme 10 mg/kg IV, up to 7 days post injection) | plasma half-life of Myozyme (reported) [5] | time the product is stable on storage [6] | thermal stability of Myozyme alone ([3]; lysosomal pH (5.2) versus ER pH (7.4), no ASSC) | Myozyme tissue uptake (as a measure of GAA activity) (GAA KO mice [4]; Myozyme 10 mg/kg IV once per week, 7 days post injection, all groups) | glycogen reduction in diaphragm relative to untreated mice (GAA KO mice [7]) [%] | glycogen reduction in heart relative to untreated mice (GAA KO mice [7]) [%] | glycogen reduction in quadriceps relative to untreated mice (GAA KO mice [7]) [%] | glycogen reduction in soleus relative to untreated mice (GAA KO mice [7]) [%]
remained completely active | OC[C@H]1NC[C@H](O)[C@@H](O)[C@@H]1O [1-DNJ-HCl, 1-deoxynorjirimycin hydrochloride] | can prevent GAA denaturation and loss of enzyme activity | increased GAA levels alone and in combination with hrGAA | best for stabilizing rhGAA and preventing enzyme inactivation | approximately 2 fold | increased | required significantly more heat to denature | dose-dependent increase |  |  |  |  |  |  |  | 
 | Myozyme: alglucosidase alfa, human acid α-glucosidase produced by recombinant DNA technology in a Chinese hamster ovary cell line (Genzyme) |  |  |  |  |  |  |  | more than 3 hrs | up to 24 hours | much more stable at lysosomal pH (5.2) than at ER pH (7.4) | declined | 41±4 | 93±1 | 18±4 | 69±3
